# Assay results published in patent US9708334B2, “Substituted 2,4,5,6-tetrahydropyrrolo[3,4-c]pyrazole and 4,5,6,7-tetrahydro-2H-pyrazolo[4,3-c]pyridine compounds as GlyT1 inhibitors” (DART NEUROSCIENCE (CAYMAN) LTD., priority 2014, dated 2017).
# Biological target: T1, GlyT1 (Homo sapiens, UniProt P48067)
# T1 construct: expressed in transfected cells
# T1 sequence (P48067 1-706): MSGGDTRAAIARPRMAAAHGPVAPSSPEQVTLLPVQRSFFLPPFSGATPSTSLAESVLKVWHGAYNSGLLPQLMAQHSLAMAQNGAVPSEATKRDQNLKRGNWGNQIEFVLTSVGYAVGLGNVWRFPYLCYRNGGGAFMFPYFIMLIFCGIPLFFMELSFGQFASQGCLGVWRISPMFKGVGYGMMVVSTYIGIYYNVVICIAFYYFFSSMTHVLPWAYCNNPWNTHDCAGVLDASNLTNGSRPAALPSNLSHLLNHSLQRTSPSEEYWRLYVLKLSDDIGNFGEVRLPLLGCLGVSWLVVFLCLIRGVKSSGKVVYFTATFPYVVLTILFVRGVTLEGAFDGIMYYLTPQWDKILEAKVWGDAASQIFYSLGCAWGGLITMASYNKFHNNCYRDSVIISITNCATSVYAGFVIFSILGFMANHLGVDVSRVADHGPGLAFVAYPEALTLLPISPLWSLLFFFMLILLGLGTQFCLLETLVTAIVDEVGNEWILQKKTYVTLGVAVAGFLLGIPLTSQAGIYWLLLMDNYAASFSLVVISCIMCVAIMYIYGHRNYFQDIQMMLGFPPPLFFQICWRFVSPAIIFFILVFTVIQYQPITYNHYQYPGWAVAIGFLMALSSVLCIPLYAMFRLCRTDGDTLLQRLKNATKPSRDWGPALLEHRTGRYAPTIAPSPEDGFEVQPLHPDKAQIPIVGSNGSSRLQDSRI
# Experiment: Glycine Transporter 1 (GlyT1) uptake assay, scintillation proximity assay of [14C]-glycine uptake
# Type: cell-based
# Conditions: SPA, four parameter logistic fit, read-out: GlyT1 (pIC50) (converted)
# How it was run: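 IC50 values derive from four-parameter logistic curves fitted to dose-response data. Uptake of [14C]-glycine measured in scintillation proximity format.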
row,SMILES,IC50 [nM]
1,"N#Cc1ccc(C2(F)CCCC2)c(C(=O)N2CCc3nn(-c4ccc(F)cc4)cc3C2)c1F [Example 188, 2-Fluoro-4-(1-fluorocyclopentyl)-3-[2-(4-fluorophenyl)-2H 4H 5H 6H 7H-pyrazolo[4,3-c]pyridine-5-carbonyl]benzonitrile]",100 to 1000
2,"C[C@H](Oc1ccc(C#N)cc1C(=O)N1Cc2cn(C3CCCCC3)nc2C1)C(F)(F)F [Example 402, 3-{2-Cyclohexyl-2H 4H 5H 6H-pyrrolo[3,4-c]pyrazole-5-carbonyl}-4-{[(2S)-1 1 1-trifluoropropan-2-yl]oxy}benzonitrile]",100 to 1000
3,"C[C@H](Oc1ccc(C#N)cc1C(=O)N1Cc2cn(CC3CCOC3)nc2C1)C(F)(F)F (stereo partly drawn) [Example 419, 3-[2-(Oxolan-3-ylmethyl)-2H 4H 5H 6H-pyrrolo[3,4-c]pyrazole-5-carbonyl]-4-{[(2S)-1 1 1-trifluoropropan-2-yl]oxy}benzonitrile]",100 to 1000
4,"COc1cc(-n2ncc3c2CN(C(=O)c2cc(C#N)ccc2OC(C)C)C3)ccn1 [Example 366, 3-[1-(2-Methoxypyridin-4-yl)-1H 4H 5H 6H-pyrrolo[3,4-c]pyrazole-5-carbonyl]-4-(propan-2-yloxy)benzonitrile]",1000 to 10000
5,"Cc1cc(-n2cc3c(n2)CN(C(=O)c2cc(C#N)ccc2OCC(F)(F)F)C3)ccn1 [Example 539, 3-[2-(2-Methylpyridin-4-yl)-2H 4H 5H 6H-pyrrolo[3,4-c]pyrazole-5-carbonyl]-4-(2 2 2-trifluoroethoxy)benzonitrile]",100 to 1000
6,"CC(C)Oc1ccc(C#N)cc1C(=O)N1Cc2cn(-c3ccccc3)nc2C1 [Example 334, 3-{2-Phenyl-2H 4H 5H 6H-pyrrolo[3,4-c]pyrazole-5-carbonyl}-4-(propan-2-yloxy)benzonitrile]",< 100
7,"Cc1c(F)cncc1-n1cc2c(n1)CN(C(=O)c1cc(C#N)ccc1O[C@@H](C)C(F)(F)F)C2 [Example 352, 3-[2-(5-Fluoro-4-methylpyridin-3-yl)-2H 4H 5H 6H-pyrrolo[3,4-c]pyrazole-5-carbonyl]-4-{[(2 S)-1 1 1-trifluoropropan-2-yl]oxy}benzonitrile]",100 to 1000
8,"CC(C)Oc1ccc(C#N)cc1C(=O)N1Cc2cn(-c3ccnc(C(C)C)c3)nc2C1 [Example 374, 3-{2-[2-(Propan-2-yl)pyridin-4-yl]-2H 4H 5H 6H-pyrrolo[3,4-c]pyrazole-5-carbonyl}-4-(propan-2-yloxy)benzonitrile]",< 100
9,"CS(=O)(=O)c1ccc(-c2cccc(F)c2)c(C(=O)N2Cc3cn(C4CCOCC4)nc3C2)c1 [Example 448, 5-[2-(3-Fluorophenyl)-5-methanesulfonylbenzoyl]-2-(oxan-4-yl)-2H 4H 5H 6H-pyrrolo[3,4-c]pyrazole]",< 100
10,"CC(C)Cn1ncc2c1CN(C(=O)c1cc(C#N)ccc1O[C@@H](C)C(F)(F)F)C2 [Example 387, 3-[1-(2-Methylpropyl)-1H 4H 5H 6H-pyrrolo[3,4-c]pyrazole-5-carbonyl]-4-{[(2S)-1 1 1-trifluoropropan-2-yl]oxy}benzonitrile]",> 10000
11,"C[C@H](Oc1ccc(C#N)c(Cl)c1C(=O)N1CCc2nn(-c3ccnc(C(F)(F)F)c3)cc2C1)C(F)(F)F [Example 240, 2-Chloro-3-{2-[2-(trifluoromethyl)pyridin-4-yl]-2H 4H 5H 6H 7H-pyrazolo[4,3-c]pyridine-5-carbonyl}-4-{[(2S)-1 1 1-trifluoropropan-2-yl]oxy}benzonitrile]",100 to 1000
12,"COc1c(C#N)ccc(OC(C)C(F)(F)F)c1C(=O)N1Cc2cn(-c3ccc(F)cc3)nc2C(C)(C)C1 (stereo not drawn) [Example 192, 3-[2-(4-Fluorophenyl)-7 7-dimethyl-2H 4H 5H 6H 7H-pyrazolo[4,3-c]pyridine-5-carbonyl]-2-methoxy-4-[(1 1 1-trifluoropropan-2-yl)oxy]benzonitrile]",1000 to 10000
13,"C[C@H](Oc1ccc(C#N)c(Cl)c1C(=O)N1Cc2cn(-c3ccc(C(F)(F)F)nc3)nc2C1)C(F)(F)F [Example 256, 2-Chloro-3-{2-[6-(trifluoromethyl)pyridin-3-yl]-2H 4H 5H 6H-pyrrolo[3,4-c]pyrazole-5-carbonyl}-4-{[(2S)-1 1 1-trifluoropropan-2-yl]oxy}benzonitrile]",100 to 1000
14,"COc1ncc(-n2cc3c(n2)CN(C(=O)c2c(O[C@@H](C)C(F)(F)F)ccc(C#N)c2OC)C3)cc1F [Example 316, 3-[2-(5-Fluoro-6-methoxypyridin-3-yl)-2H 4H 5H 6H-pyrrolo[3,4-c]pyrazole-5-carbonyl]-2-methoxy-4-{[(2S)-1 1 1-trifluoropropan-2-yl]oxy}benzonitrile]",< 100
15,"CC(C)n1cc2c(n1)CN(C(=O)c1cc(S(C)(=O)=O)ccc1N1CCC(F)(F)CC1)C2 [Example 433, 4 4-Difluoro-1-{4-methanesulfonyl-2-[2-(propan-2-yl)-2H 4H 5H 6H-pyrrolo[3,4-c]pyrazole-5-carbonyl]phenyl}piperidine]",100 to 1000
16,"COc1c(C#N)ccc(O[C@@H](C)C(F)(F)F)c1C(=O)N1Cc2cn(-c3ccnc(C)c3)nc2C1 [Example 18, 2-Methoxy-3-[2-(2-methylpyridin-4-yl)-2H 4H 5H 6H-pyrrolo[3,4-c]pyrazole-5-carbonyl]-4-{[(2S)-1 1 1-trifluoropropan-2-yl]oxy}benzonitrile]",< 100
17,"C[C@H](Oc1ccc(S(C)(=O)=O)cc1C(=O)N1Cc2cn(-c3cc(F)ccc3F)nc2C1)C(F)(F)F [Example 121, 2-(2 5-Difluorophenyl)-5-(5-methanesulfonyl-2-{[(2S)-1 1 1-trifluoropropan-2-yl]oxy}benzoyl)-2H 4H 5H 6H-pyrrolo[3,4-c]pyrazole]",< 100
18,"COc1ncc(-n2ncc3c2CN(C(=O)c2c(O[C@@H](C)C(F)(F)F)ccc(C#N)c2OC)C3)cc1F [Example 315, 3-[1-(5-Fluoro-6-methoxypyridin-3-yl)-1H 4H 5H 6H-pyrrolo[3,4-c]pyrazole-5-carbonyl]-2-methoxy-4-{[(2 S)-1 1 1-trifluoropropan-2-yl]oxy}benzonitrile]",100 to 1000
19,"CS(=O)(=O)c1ccc(OCC2CC2)c(C(=O)N2Cc3cn(-c4cccc(C(F)(F)F)c4F)nc3C2)c1 [Example 138, 5-[2-(Cyclopropylmethoxy)-5-methanesulfonylbenzoyl]-2-[2-fluoro-3-(trifluoromethyl)phenyl]-2H 4H 5H 6H-pyrrolo[3,4-c]pyrazole]",< 100
20,"CC(C)S(=O)(=O)c1ccc(O[C@@H](C)C(F)(F)F)c(C(=O)N2Cc3cn(-c4ccccc4F)nc3C2)c1 [Example 88, 2-(2-Fluorophenyl)-5-[5-(propane-2-sulfonyl)-2-{[(2S)-1 1 1-trifluoropropan-2-yl]oxy}benzoyl]-2H 4H 5H 6H-pyrrolo[3,4-c]pyrazole]",100 to 1000
21,"C[C@H](Oc1ccc(S(C)(=O)=O)cc1C(=O)N1Cc2cn(Cc3ccccc3)nc2C1)C(F)(F)F [Example 398, 2-Benzyl-5-(5-methanesulfonyl-2-{[(2S)-1 1 1-trifluoropropan-2-yl]oxy}benzoyl)-2H 4H 5H 6H-pyrrolo[3,4-c]pyrazole]",< 100
22,"Cc1cccc(-n2cc3c(n2)CN(C(=O)c2cc(S(C)(=O)=O)ccc2OCC2CC2)C3)c1 [Example 140, 5-[2-(Cyclopropylmethoxy)-5-methanesulfonylbenzoyl]-2-(3-methylphenyl)-2H 4H 5H 6H-pyrrolo[3,4-c]pyrazole]",< 100
23,"COc1c(C#N)ccc(N2CCC(F)(F)C2)c1C(=O)N1Cc2cn(-c3ccc(F)cc3)nc2C1 [Example 514, 4-(3 3-Difluoropyrrolidin-1-yl)-3-[2-(4-fluorophenyl)-2H 4H 5H 6H-pyrrolo[3,4-c]pyrazole-5-carbonyl]-2-methoxybenzonitrile]",< 100
24,"N#Cc1ccc(-c2cncc(F)c2)c(C(=O)N2Cc3cn(-c4cncc(F)c4)nc3C2)c1 [Example 552, 4-(5-Fluoropyridin-3-yl)-3-[2-(5-fluoropyridin-3-yl)-2H 4H 5H 6H-pyrrolo[3,4-c]pyrazole-5-carbonyl]benzonitrile]",100 to 1000
25,"COc1c(C#N)ccc(C2(F)CCC2)c1C(=O)N1Cc2cn(-c3cncc(F)c3)nc2C1 [Example 23, 4-(1-Fluorocyclobutyl)-3-[2-(5-fluoropyridin-3-yl)-2H 4H 5H 6H-pyrrolo[3,4-c]pyrazole-5-carbonyl]-2-methoxybenzonitrile]",100 to 1000
26,"CCS(=O)(=O)c1ccc(O[C@@H](C)C(F)(F)F)c(C(=O)N2Cc3cn(-c4cccc(C)c4)nc3C2)c1 [Example 72, 5-[5-(Ethanesulfonyl)-2-{[(2S)-1 1 1-trifluoropropan-2-yl]oxy}benzoyl]-2-(3-methylphenyl)-2H 4H 5H 6H-pyrrolo[3,4-c]pyrazole]",< 100
27,"COc1c(C#N)ccc(OC(C)C(C)C)c1C(=O)N1Cc2cn(-c3ccc(F)cc3)nc2C1 (stereo not drawn) [Example 523, 3-[2-(4-Fluorophenyl)-2H 4H 5H 6H-pyrrolo[3,4-c]pyrazole-5-carbonyl]-2-methoxy-4-[(3-methylbutan-2-yl)oxy]benzonitrile]",< 100
